Test results reported in patent US20040259875A1, “Amine derivatives” (priority 2001, published 2004).

melting point | SMILES
185 °C | O=C(NCc1ccc(Br)cc1)Nc1cccc2ccc([O-])c(F)c12.[K+]
190 °C | Cc1cc(NC(=O)Nc2c(Cl)cc(Cl)c3ccc([O-])cc23)ccc1Cl.[K+]
188 °C | O=C(Nc1ccc(N2CCOCC2)c(Cl)c1)Nc1c(Cl)cc(Cl)c2ccc([O-])cc12.[K+]
150 °C (dec.) | O=C(Nc1ccc(Cl)c(C(F)(F)F)c1)Nc1c(Cl)cc(Cl)c2ccc([O-])cc12.[K+]
206 °C (dec.) | COc1cccc(-c2cccc(NC(=O)Nc3c(Cl)cc(Cl)c4ccc([O-])cc34)c2)c1.[K+]
242 to 243 °C | O=C(Nc1cccc(Cl)c1)Nc1c(Br)cc(Br)c2ccc(O)cc12 [Example 1-3]
242 to 243 °C | O=C(Nc1ccc(Cl)c(C(F)(F)F)c1)Nc1c(Br)cc(Br)c2ccc(O)cc12 [Example 1-4]
226 to 229 °C | O=C(NCc1ccc(Br)cc1)Nc1c(Cl)ccc2ccc(O)cc12 [Example 1-6]
255 °C (dec.) | O=C(Nc1ccc(Cl)c(C(F)(F)F)c1)Nc1c(Cl)cc(Cl)c2ccc(O)cc12 [Example 1-9]
234 to 236 °C | CCOC(=O)c1cccc(NC(=O)Nc2c(Cl)cc(Cl)c3ccc(O)cc23)c1 [Example 1-12]
263 to 265 °C | O=C(Nc1ccc2ccccc2c1)Nc1c(Cl)cc(Cl)c2ccc(O)cc12 [Example 1-14]
213 to 216 °C | COc1cccc(NC(=O)Nc2c(Br)cc(Br)c3ccc(O)cc23)c1 [Example 1-16]
193 to 196 °C | CCOC(=O)c1cccc(NC(=O)Nc2c(Br)cc(Br)c3ccc(O)cc23)c1 [Example 1-17]
229 to 233 °C | O=C(Nc1ccc(Cl)cc1)Nc1c(Br)cc(Br)c2ccc(O)cc12 [Example 1-26]
223 to 226 °C | COc1ccc(CNC(=O)Nc2c(Cl)cc(Cl)c3ccc(O)cc23)cc1 [Example 1-31]
215 to 218 °C | O=C(NCc1cccc(F)c1)Nc1c(Br)cc(Br)c2ccc(O)cc12 [Example 1-33]
228 °C | O=C(Nc1ccc(Cl)c(C(F)(F)F)c1)Nc1cccc2ccc(O)c(F)c12 [Example 1-34]
300 °C | O=C(Nc1cccc(Cl)c1Cl)Nc1c(Cl)cc(Cl)c2ccc(O)cc12 [Example 1-39]
189 °C | O=C(Nc1ccc2ccccc2c1)Nc1cccc2ccc(O)c(F)c12 [Example 1-53]
210 °C | O=C(NCc1ccc(Br)cc1)Nc1cccc2ccc(O)cc12 [Example 1-71]
211 °C | O=C(Nc1ccc(Cl)c(C(F)(F)F)c1)Nc1ccc(Br)c2ccc(O)cc12 [Example 1-72]
215 °C | O=C(Nc1ccc(F)c(C(F)(F)F)c1)Nc1ccc(Br)c2ccc(O)cc12 [Example 1-73]
193 to 194 °C | O=C(Nc1ccc(Cl)c(C(F)(F)F)c1)Nc1cccc2ccc(NCc3ccccc3)cc12 [Example 1-75]
232 to 234 °C | Nc1ccc2cccc(NC(=O)Nc3ccc(Cl)c(C(F)(F)F)c3)c2c1 [Example 1-76, N-(7-amino-naphthalen-1-yl)-N′-(4-chloro-3-trifluoromethyl-phenyl)urea]
258 to 259 °C | CNc1ccc2ccc(Cl)c(NC(=O)Nc3ccc(Cl)c(C(F)(F)F)c3)c2c1 [Example 1-77]
194 °C | CN(C(=O)NCc1ccc(Br)cc1)c1cccc2ccc(O)cc12 [Example 1-78]
215 °C | CN(C(=O)Nc1ccc2ccccc2c1)c1cccc2ccc(O)cc12 [Example 1-79]
254 °C | Cc1cc(Cl)c(NC(=O)Nc2ccc(Cl)c(C(F)(F)F)c2)c2cc(O)ccc12 [Example 1-83]
207.5 °C | CC(C)c1ccc(NC(=O)Nc2cccc3cc(O)ccc23)cc1 [Example 1-139]
214 to 215 °C | O=C(Nc1cccc(Cl)c1)Nc1cccc2ccc(OC(=O)c3ccccc3)cc12 [Example 1-166]

The remaining lines, values behind:

SMILES | melting point
O=C(Nc1ccc2c(c1)C(=O)c1ccccc1-2)Nc1c(Cl)cc(Cl)c2ccc([O-])cc12.[K+] | 200 °C
O=C(Nc1cccc2c1C(=O)c1ccccc1-2)Nc1c(Cl)cc(Cl)c2ccc([O-])cc12.[K+] | 195 °C
O=C(Nc1ccc(C(F)(F)F)cc1)Nc1c(Cl)cc(Cl)c2ccc([O-])cc12.[K+] | 179 °C (dec.)
O=C(Nc1cccc(-c2ccc(Cl)c(F)c2)c1)Nc1c(Cl)cc(Cl)c2ccc([O-])cc12.[K+] | 174 °C (dec.)
O=C(Nc1cccc(Cl)c1)Nc1c(Cl)cc(Cl)c2ccc(O)cc12 [Example 1-1, N-(3-Chlorophenyl)-N′-(2,4-dichloro-7-hydroxy-1-naphthyl)urea] | > 260 °C
O=C(Nc1cccc(Cl)c1)Nc1c(Cl)ccc2ccc(O)cc12 [Example 1-2] | 242 to 243 °C
O=C(Nc1ccc(Cl)c(C(F)(F)F)c1)Nc1c(Cl)ccc2ccc(O)cc12 [Example 1-8] | 260 °C (dec.)
COc1cccc(NC(=O)Nc2c(Cl)cc(Cl)c3ccc(O)cc23)c1 [Example 1-11] | 223 to 226 °C
CCOC(=O)c1ccc(NC(=O)Nc2c(Cl)cc(Cl)c3ccc(O)cc23)cc1 [Example 1-13] | 258 to 260 °C
COc1ccccc1NC(=O)Nc1c(Br)cc(Br)c2ccc(O)cc12 [Example 1-15] | 228 to 230 °C
O=C(Nc1ccc(Cl)cc1)Nc1c(Cl)cc(Cl)c2ccc(O)cc12 [Example 1-21] | 253 to 255 °C
O=C(Nc1ccc(C(F)(F)F)cc1)Nc1c(Cl)cc(Cl)c2ccc(O)cc12 [Example 1-23] | 268 to 271 °C
O=C(Nc1ccc(F)cc1)Nc1c(Br)cc(Br)c2ccc(O)cc12 [Example 1-25] | 222 to 225 °C
O=C(Nc1cccc(C(F)(F)F)c1)Nc1c(Br)cc(Br)c2ccc(O)cc12 [Example 1-27] | 233 to 236 °C
O=C(NCc1cccc(F)c1)Nc1c(Cl)cc(Cl)c2ccc(O)cc12 [Example 1-30] | 225 to 228 °C
CN(C)c1ccc(NC(=O)Nc2c(Cl)cc(Cl)c3ccc(O)cc23)cc1 [Example 1-32] | 192 °C (dec.)
CCN(CC)c1ccc(NC(=O)Nc2c(Cl)ccc3ccc(O)cc23)cc1 [Example 1-35] | 199.8 to 200.5 °C
O=C(Nc1cccc(F)c1)Nc1c(Cl)cc(Cl)c2ccc(O)cc12 [Example 1-40] | > 300 °C
O=C(Nc1cc(C(F)(F)F)ccc1Cl)Nc1c(Cl)cc(Cl)c2ccc(O)cc12 [Example 1-41] | > 300 °C
CNc1ccc2cccc(NC(=O)Nc3ccc(Cl)c(C(F)(F)F)c3)c2c1 [Example 1-74] | 218 to 219 °C
Cc1ccc(NC(=O)Nc2ccc(Cl)c(C(F)(F)F)c2)c2cc(O)ccc12 [Example 1-80] | 237 to 238 °C
O=C(Nc1ccc(Cl)c(C(F)(F)F)c1)Nc1c(Cl)cc(CO)c2ccc(O)cc12 [Example 1-82] | 210 °C
C=CCOc1ccc2cccc(NC(=O)Nc3ccc(Cl)c(C(F)(F)F)c3)c2c1 [Example 1-164] | 183 to 184 °C
O=C(Nc1ccc(Cl)c(C(F)(F)F)c1)Nc1cccc2ccc(OC(=O)c3ccccc3)cc12 [Example 1-165] | 220 to 222 °C
